Source: patent US20130109698A1, “Small Molecule Inhibitors of Functions of the HIV-1 Matrix Protein” (priority 2010, published 2013)
pIC50: −log10 of the molar value.

Columns and labels:
[1] = tested on: SIV MAC251; assay: Antiviral efficacy in PBMCs, reverse transcriptase activity; format: cell-based; settings: for pIC50 / IC90: Simian immunodeficiency virus, PBMC
[2] = tested on: yellow fever; format: cell-based; settings: up to 100 μM
[3] = tested on: HIV-1 92BR030; assay: Anti-HIV efficacy in human PBMCs, reverse transcriptase activity; format: cell-based; settings: HIV-1 92BR030, PBMCs; for pIC50 / IC90: Human immunodeficiency virus 1, PBMC
Method: (§1) HIV human peripheral blood mononuclear cell (PBMC) assays were performed as described previously (Lanier et al., 2010, Antimicrob Agents Chemother 54:2901-2909 and Ptak et al., 2008, Antimicrob Agents Chemother 52:1302-1317). Briefly, fresh PBMCs, seronegative for HIV and hepatitis B virus (HBV), were isolated from blood samples of the screened donors (Biological Specialty Corporation, Colmar, Pa.) by using lymphocyte separation medium (LSM; density, 1.078±0.002 g/ml; Cellgro; Mediatech, Inc.) by following the manufacturer's instructions. Cells were stimulated by incubation in 4 μg/mL phytohemagglutinin (PHA; Sigma) for 48 to 72 h. Mitogenic stimulation was maintained by the addition of 20 U/mL recombinant human interleukin-2 (rhIL-2; R&D Systems, Inc.) to the culture medium. PHA-stimulated PBMCs from at least two donors were pooled, diluted in fresh medium, and added to 96-well plates at 5×10^4 cells/well. Cells were infected (final multiplicity of infection [MOI] of ≅0.1) in the presence of nine different concentrations of test compounds (triplicate wells/concentration) and incubated for 7 days. To determine the level of virus inhibition, cell-free supernatant samples were collected for analysis of reverse transcriptase activity (Buckheit et al., 1991, AIDS Res Hum Retroviruses 7:295-302). Following removal of supernatant samples, compound cytotoxicity was measured by the addition of 3-(4,5-dimethylthiazol-2-yl)-5-(3-carboxymethoxy-phenyl)-2-(4-sulfophenyl)-2H-tetrazolium (MTS; CellTiter 96 reagent; Promega) by following the manufacturer's instructions.

[4] = tested on: HIV-1 93IN101; assay: as above; format: cell-based; settings: HIV-1 93IN101, PBMCs; for pIC50 / IC90: Human immunodeficiency virus 1, PBMC
Method: as §1

[5] = tested on: Japanese encephalitis; assay: Antiviral spectrum: cytopathic effect assay; format: cell-based
[6] = tested on: herpes simplex type 1; assay: Antiviral spectrum: HSV-1 in Vero cells; format: cell-based; settings: herpes simplex type 1, up to 100 μM
Method: The effects of the compounds on HSV-1 (dsDNA; strain HF evaluated in Vero cells; virus and cells obtained from the American Type Culture Collection [ATCC]) were assessed as described previously (Ptak et al., 2008, Antimicrob Agents Chemother 52:1302-1317).

[7] = tested on: influenza H1N1; assay: Antiviral spectrum: cytopathic effect assay; format: cell-based; settings: influenza H1N1, up to 100 μM
[8] = tested on: Chikungunya; assay: Antiviral spectrum: cytopathic effect assay; format: cell-based
[9] = tested on: Vaccinia; format: cell-based; settings: up to 100 μM
[10] = Compound cytotoxicity in PBMCs (MTS); format: cell-based, human; settings: human; Table 4 study, PBMCs; read-out: TC50
Method: as §1

[11] = tested on: PBMCs; assay: Compound cytotoxicity in PBMCs (MTS); format: cell-based, human; settings: Tables 6 and 7 study; read-out: TC50 (the source's name)
Method: as §1

[12] = tested on: HIV-1 Ba-L; assay: Antiviral activity of additional compounds (Tables 6 and 7); format: cell-based
Method: as §1

[13] = tested on: HIV-1 NL4-3; assay: as above; format: cell-based
Method: as §1

[14] = tested on: HIV-1 IIIB; assay: Infection of Sup-T1 cells by HIV-1 IIIB, p24 ELISA; settings: 50 μM, three days
[15] = Human immunodeficiency virus 1, BAL
[16] = Human immunodeficiency virus 1, NL43

Row | SMILES | Antiviral index (TC50/IC50) [1] | pIC50 [1] | IC90 [1] [µM] | inhibitory effects on replication [2] | Antiviral index (TC50/IC50) [3] | pIC50 [3] | IC90 [3] [µM] | Antiviral index (TC50/IC50) [4] | pIC50 [4] | IC90 [4] [µM] | inhibitory effects on replication [5] | inhibitory effects on replication [6] | inhibitory effects on replication [7] | inhibitory effects on replication [8] | inhibitory effects on replication [9] | CC50 at 7 days [10] [µM] | further results
1 | Cc1ccc(NC(=O)CN2CCN(Cc3nc(-c4ccc(F)cc4)no3)CC2)cc1 [CMPD-7, 2-(4-((3-(4-fluorophenyl)-1,2,4-oxadiazol-5-yl)methyl)piperazin-1-yl)-N-(p-tolyl)acetamide] | > 10.55 | 5.02 | 31 | no inhibitory effects | > 10.72 | 5.03 | > 100 | > 6.13 | 4.79 | > 100 | no inhibitory effects | no inhibitory effects | no inhibitory effects | no inhibitory effects | no inhibitory effects | > 100 | 
2 | O=C(CNC(=O)COc1ccccc1)NCc1ccc(C(=O)N2CCCCC2)cc1 [CMPD-14, N-(2-oxo-2-((4-(piperidine-1-carbonyl)benzyl)amino)ethyl)-2-phenoxyacetamide] | > 5.85 | 4.77 | 44.2 | no inhibitory effects | > 4.51 | 4.65 | 68.6 | > 5.56 | 4.74 | 62.1 | no inhibitory effects | no inhibitory effects | no inhibitory effects | no inhibitory effects | no inhibitory effects | > 100 | CC50 [11]: > 100 µM; Antiviral index (TC50/IC50) [12]: > 3.13; pIC50 [12, 15]: 4.49; IC90 [12, 15]: > 100 µM; Antiviral index (TC50/IC50) [13]: > 2.53; pIC50 [13, 16]: 4.40; IC90 [13, 16]: > 100 µM
3 | CCOc1ccc(NC(=O)Cc2cn3ccsc3n2)cc1S(=O)(=O)N1CCCCC1 [CMPD-18, N-(4-ethoxy-3-(piperidin-1-ylsulfonyl)phenyl)-2-(imidazo[2,1-b]thiazol-6-yl)acetamide] | 1.06 | 4.06 | > 100 | no inhibitory effects | 3.95 | 4.63 | 94 | 3.00 | 4.51 | 85.2 | no inhibitory effects | no inhibitory effects | no inhibitory effects | no inhibitory effects | no inhibitory effects | 92.3 | HIV-1 replication (p24), in words [14]: inhibited
